What was measured:
[1] = system: Human monocytic cell line THP-1; assay: LPS-stimulated cytokine secretion by ELISA in THP-1 cells; format: cell-based; settings: THP-1, overnight increasing doses of FK866, LPS 6 h
Method: (§1) Human monocytic cell line THP-1 was cultured overnight in the presence of graded doses of nicotinic acid (NA), a precursor of NAD, and then stimulated with lipopolysaccharide (LPS) from gram-negative bacteria for 2 h. The cell supernatant was tested for tumor necrosis factor (TNF) content by ELISA and the intracellular pool of NAD was measured by an enzymatic assay.
(§2) Human monocytic cell line THP-1, human peripheral blood mononuclear cells (PBMC), human monocyte-derived dendritic cells, or mouse peritoneal macrophages were isolated and cultured overnight with increasing doses of FK866, and then stimulated with LPS for 6 h. The culture supernatants were tested for TNF and IL-6 content by ELISA
THP-1 cells were incubated in the presence of 10 nM FK866 and graded doses of NMN. Cells were further stimulated with LPS and intracellular NAD levels and TNFα secretion were determined using standard assays.
as §1, with “This example illustrates the direct relationship between NAD levels in cells and pro-inflammatory cytokine secretion. Human” for “Human”, “of” for “of graded doses of”, “acid,” for “acid (NA),”
as §2, with “This example describes the inhibition of pro-inflammatory cytokines production by the competitive small molecular weight compound inhibitor of NMPRT, ((E)-N-[4-(1-benzoylpiperidin-4-yl)butyl]-3-(pyridin-3-yl)acrylamide, designated FK866). Human” for “Human”, “ELISA.” for “ELISA”
This example illustrates that NAMPT is the only molecular target of FK866. […]

[2] = system: mouse peritoneal macrophages; assay: LPS-stimulated TNF and IL-6 secretion by ELISA in peritoneal macrophages; format: cell-based; settings: overnight increasing doses of FK866, LPS 6 h
Method: as §2
as §2, with “This example describes the inhibition of pro-inflammatory cytokines production by the competitive small molecular weight compound inhibitor of NMPRT, ((E)-N-[4-(1-benzoylpiperidin-4-yl)butyl]-3-(pyridin-3-yl)acrylamide, designated FK866). Human” for “Human”, “ELISA.” for “ELISA”

RAW264.7 cell line = assay: LPS-stimulated TNF secretion by ELISA in RAW264.7 cells; format: cell-based, mouse
Method: The murine RAW264.7 cell line was stimulated with LPS in the presence of FK866. TNF protein concentrations were determined by ELISA (above panel) while mRNA levels were determined by RT-PCR (below panel).
(§3) (A) The mouse macrophage cell line RAW264.7 was cultured overnight with increasing doses of FK866, and then stimulated with LPS for 2 h. The culture supernatants were tested for TNF content by ELISA and intracellular NAD levels were measured by an enzymatic assay.
(§4) (B) RAW264.7 cells were cultured overnight in the presence of FK866 and the intracellular pool of NAD was restored by co-incubation of the cells with nicotinic acid (NA). Cells were then stimulated with LPS for 2 h and the culture supernatant was tested for TNF content by ELISA.
(C) RAW264.7 cells were cultured overnight in the presence of FK866 and NAD levels were maintained by culturing the cells in the presence of extracellular NAD. Cells were then stimulated with LPS for 2 h and the culture supernatant was tested for TNF content by ELISA.
This example illustrates that FK866 inhibits TNFα secretion at a posttranscriptional level. The murine RAW 264.7 cell line was incubated in the presence of graded doses of FK866, stimulated with microbial products, and levels of TNFα released in the supernatant evaluated by ELISA.
as §3, with “This example illustrates the correlation between proinflammatory cytokine secretion and NAD levels in the cell.” for “(A)”
as §4, with “In another experiment,” for “(B)”, “nicotinic acid. Nicotinic” for “nicotinic”, “is a precursor of NAD, but its transformation into NAD is not dependent upon NMPRT and is thus not inhibited by FK866.” for “(NA).”
In another experiment, RAW264.7 cells were cultured overnight in the presence of FK866 and NAD levels were maintained by culturing the cells in the presence: of extra-cellular NAD. Cells were then stimulated with LPS for 2 h and the culture supernatant was tested for TNF content by ELISA.

Human PBMC = assay: MTT cell viability assay in PBMC; format: cell-based; settings: overnight increasing doses of FK866, LPS 6 h
Method: (§5) (A) Human PBMC were isolated and cultured overnight with increasing doses of FK866, and then stimulated with LPS for 6 h. At the end of the culture, cell viability was assessed using the MTT (3-(4,5-Dimethylthiazol-2-yl)-2,5-diphenyltetrazolium bromide) assay.
as §5, with “This example illustrates that the inhibition of proinflammatory cytokine secretion induced by lowering intracellular NAD levels is not due to apoptosis induction.” for “(A)”

[3] = system: collagen-induced arthritis; assay: Collagen-induced arthritis (CIA) mouse model; format: in vivo
[4] = 10 mg/kg ip twice daily, 14 days, 0-3 histological score, vs placebo
[5] = CIA mice, end of the experiment

O=C(/C=C/c1cccnc1)NCCCCC1CCN(C(=O)c2ccccc2)CC1 [FK866, (E)-N-[4-(1-benzoylpiperidin-4-yl)butyl]-3-(pyridine-3-yl)-acrylamide]
cytokine secretion (TNF and IL-6) [1]: inhibited cytokine secretion in a dose-dependent fashion | cytokine secretion (TNF and IL-6) [2]: inhibited cytokine secretion in a dose-dependent fashion | TNFα secretion (RAW264.7 cell line; RAW 264.7, graded doses of FK866, stimulated with LPS, ELISA): strongly inhibited | TNF production (RAW264.7 cell line; RAW264.7, overnight increasing doses of FK866, LPS 2 h): inhibition of TNF production | cell viability (MTT) (Human PBMC): not affected | inflammatory infiltrate in knee joint sections [3, 4]: statistically significant decrease | synovial hyperplasia in knee joint sections [3, 4]: statistically significant decrease | histology of knees and paws ([3]; 10 mg/kg ip twice daily, 14 days, vs placebo): much less inflammation | paw inflammation ([3]; 10 mg/kg ip twice daily, after 2 weeks of treatment, vs placebo): minimal signs of inflammation | effect on established CIA (dose-response) ([3]; 2, 5 or 10 mg/kg ip twice daily for 15 days): marked protective dose-dependent effect | IL-1β in paw tissue extracts [3, 5]: significantly reduced | IL-6 in paw tissue extracts [3, 5]: significantly reduced | IL-10 secretion in paw tissue extracts [3, 5]: remained unchanged | MCP-1 in paw tissue extracts [3, 5]: decreased | symptoms of arthritis (clinical score) ([3]; DBA/1 mice, 10 mg/kg ip twice daily for 15 days from clinical score ≧1): ameliorates the symptoms of arthritis | severity of arthritis in CIA mice ([3]; FK866 10 mg/kg ip twice daily or etanercept 15 mg/kg every three days, over 15 days): activity similar to etanercept | time until beneficial effect apparent after commencement of treatment ([3]; established CIA): ≤ 10 days | dose of maximal therapeutic effect on CIA ([3]; ip twice daily for 15 days): 10 mg/kg | Serum amyloid A protein (SAA) levels ([3]; sera of CIA mice at day 14, ELISA, vs placebo): decreased
